{"source": "patent US10780094B2", "about": "“Use of carbonic anhydrase inhibitors for treatment of neurological and psychiatric disorders” (New York University, priority 2016, dated 2020)", "key": {"SH-SY5Y cells": {"tested_on": "SH-SY5Y cells", "test": "Cell Death ELISAplus, Aβ-induced apoptosis (fragmented nucleosomes)", "type": "cell-based, human", "conditions": "for apoptosis in response to Aβ: Example 2/3, Aβ42 challenge, FIG. 17A, 21", "procedure": "(§1) The extent of apoptosis caused by Aβ in the presence or absence of MTZ was assessed by quantitation of nucleosome formation using Cell Death ELISA^plus (Roche Applied Science, Indianapolis, Ind.). Briefly, after incubation with the peptides, plates were centrifuged in a Beckman J-6B centrifuge (10 min; 1,000 rpm), cells lysed, and DNA-histone complexes (nucleosomes) quantitated by Cell Death ELISA, as previously described (Fossati et al., 2010).\n(§2) 20.000 cells per well were plated on 24-wells plates. The day after, cells were treated with peptides and/or drugs, following the experimental conditions.\n(§3) 20,000 cells per well were plated on 24-wells plates. The day after, cells were treated with peptides and/or drugs, following the experimental conditions."}, "Normal Human Astrocytes": {"tested_on": "Normal Human Astrocytes", "test": "Cell Death ELISAplus, Aβ-induced apoptosis (fragmented nucleosomes)", "type": "cell-based", "conditions": "1 day", "procedure": "as §1"}, "hCMEC/D3 cells (D3)": {"tested_on": "hCMEC/D3 cells (D3)", "test": "Cell Death ELISAplus, Aβ-induced apoptosis", "type": "cell-based, human", "conditions": "Example 2/3; Aβ40-Q22 challenge; FIG. 17B, 21", "procedure": "as §2, §3"}, "[1]": {"tested_on": "D3 cerebral microvascular endothelial cells", "test": "TMRM assay of mitochondrial membrane potential (ΔΨ)", "type": "cell-based, human", "conditions": "for ΔΨ after pre-aggregated Aβ: any of the used concentrations, 45 minutes", "procedure": "(§4) Briefly, cells were plated on 25 mm optical borosilicate poly-L-lysine-coated sterile glass covers (ThermoFisher, Waltham, Mass., US) at a 70% confluence. The day after, cells were washed twice with HBSS and charged with 600 nM TMRM on HBSS. Cells were then incubated for 20 min in the incubator, at 37° C. and washed again with HBSS. After that, the medium was replaced by HBSS containing 150 nM of tetramethylrhodamine methyl ester (TMRM), in order to maintain the equilibrium distribution of the fluorophore. Cells were then mounted on Sykes-Moores chambers (BellCo, Vineland, N.J., US) and treated with the different drugs and/or peptides. An image was taken at minute 0 and at minute 45, after adding the drugs and/or peptides. In this experiment, the peptide was pre-aggregated as above before adding it to the cells."}, "SH-SY5Y neuronal cells": {"tested_on": "SH-SY5Y neuronal cells", "test": "TMRM assay of mitochondrial membrane potential (ΔΨ)", "type": "cell-based, human", "conditions": "for ΔΨ after pre-aggregated Aβ: any of the used concentrations, 45 minutes", "procedure": "as §4"}, "TgSwDI mice [2]": {"tested_on": "TgSwDI mice", "test": "Brain immunostaining and Thioflavin S staining in a model of vascular and parenchymal amyloidosis", "type": "in vivo, mouse", "conditions": "for Aβ and GFAP staining, dentate gyrus (hippocampus) / GFAP and Aβ staining and their colocalization, cortex / co-localization of Aβ staining with glial cells, dentate gyrus / gliosis and amyloidosis, thalamic region: 16 month-old mice treated for 8 months; for amyloid deposits in the cortex and thalamic region (Thioflavin S) / hippocampal deposition of Amyloid beta (Thioflavin S) / amyloid load in the brain (Thioflavin S): 16 months old, diet 8 months; for amyloid load in the brain (Thioflavin S): 15-20 mg/kg/day", "procedure": "The animals were sacrificed by trans-cardiac perfusion (medium flow pump, Fisher Scientific 13-876-2, 10 ml/min flow rate) with PBS for 2 minutes followed by 4% paraphormaldehyde for 5 minutes. Brains were then removed from the skull and postfixed in 4% paraphormaldehyde for 2 h at 4° C. […] Brains were then washed in PBS, assembled in a plastic mold with Tissue-Tek O.C.T. compound (Fisher Scientific), and frozen with a mixture of liquid nitrogen and isopenthanol. Serial cryostat sections of 8 μm thickness were collected on positively charged microscope slides (Fisher Scientific) and stored at −80° C. until further immunohistochemical analysis.\nFor immunohistochemical staining, slices were warmed to RT for 5′ prior to use, rinsed in PBS and blocked with Mouse on Mouse (MOM) blocking reagent (2 drops in 2.5 ml of PBS, Vector Laboratories, Burlingame, Calif.) for 20 minutes. Incubation with the rabbit monoclonal antibody against active caspase-3 (Cell Signaling Technology) was performed overnight at 4° C. in PBS containing 0.1% triton X-100 and 5 mg/ml BSA. The day after, the sections were washed three times with PBS and incubated in Alexa Fluor 488- or 633-conjugated anti-rabbit IgG (Life Technologies; 1:200 in PBST with 5 mg/ml BSA; 1 h at RT), followed by primary anti-Aβ 6E10 (1:200 in PBS+MOM for 2 hours at RT), and by secondary Alexa Fluor 568 anti-mouse IgG. Finally, the slices were washed and the DNA counterstained with TO-PRO (Life Technologies) 1:1000 for 10 min, or with NeuN green neuronal staining (1:100 in PBS for 1 hour, Millipore, Temecula, Calif.). For staining of active microglial cells, tissue sections were incubated with anti IBA1 goat antibody (Abcam, Cambridge, Mass.) 1:200 in PBS containing 0.1% Triton and 5 mg/ml BSA for 1 hour, followed by Alexa Fluor 488 anti-goat IgG (1 hour). For astrocytes, brain slices were stained with GFAP antibody (Fisher Scientific 1:200).\nTotal fibrillar Aβ burden (parenchymal and vascular) and CAA burden (Aβ burden in the vasculature) were evaluated separately in sections stained with Thioflavin-S, using methods described previously (Scholtzova et al., J Neurosci 2009, 29: 1846-1854).\nAfter washing, slides were mounted with an aqueous mounting medium (Vector Laboratories). Images were acquired in a Zeiss LSM 510 confocal microscope using 40× or 100× oil lens and processed using Image J and Adobe Photoshop. Images were acquired maintaining constant exposure for all samples across single experiments. For quantifications, stained brain slices corresponding to the injection site area of 3 or more animals were quantified with Image J. The total area of NeuN, caspase 3, Aβ and IBA1 positive cells was quantified and compared between different treatments."}, "TgSwDI mice [3]": {"tested_on": "TgSwDI mice", "type": "in vivo", "conditions": "given with diet", "procedure": "The grip strength test was used to measure neuromuscular function and specifically assesses maximal muscle/grip force of the forelimbs (only) or both the fore and hind limbs combined. Motor performance was assessed by the horizontal grasping force applied by the rodent to a specialized stainless steel grid that is connected to a sensitive, electronic force sensor (Bioseb In Vivo Research Instruments). […] With the base of the tail held gently but firmly between thumb and forefinger, the mouse was pulled gently back away from the grid, ensuring that the torso remains horizontal, until the animal loses grip of the grid. For combined fore and hindlimb measurement, the procedure was identical to the forelimb-only procedure except that mouse was lowered to allow both fore and hind paws to attach to the grid before any measurements were taken. […]\nTo ensure maximal reliability, each measurement of interest (e.g., forelimb or combined) was repeated consecutively for each mouse to obtain 5-6 replicates. […] A truncated mean (mean of replicates after the smallest and largest readings were removed) was calculated for each subject. […]\nMice in each treatment group (WT, Tg, Tg+MTZ, Tg+ATZ) were counted before the beginning of the treatment, at month 2, and at sacrifice (month 16). […]"}, "[4]": {"conditions": "drugs in diet from 5-6 months of age, sacrificed at 9 months"}, "[5]": {"conditions": "ATZ 10 μM added to the peptides"}}, "data": [{"molecule": "CC(=O)/N=c1/sc(S(N)(=O)=O)nn1C", "note": "[MTZ, methazolamide]", "values": [{"measurement": "DNA fragmentation after Aβ challenge", "setting": "SH-SY5Y cells; 100 μM MTZ, Aβ42 10 μM or Aβ40-Q22 50 μM, 1 day", "value": "significantly effective at reducing DNA fragmentation"}, {"measurement": "Aβ-mediated increase in fragmented nucleosomes", "setting": "SH-SY5Y cells; 300 μM MTZ, Aβ42 10 μM or Aβ40-Q22 50 μM, 1 day", "value": "completely prevented"}, {"measurement": "apoptosis in response to Aβ", "setting": "SH-SY5Y cells", "value": "prevented"}, {"measurement": "DNA fragmentation after Aβ challenge", "setting": "Normal Human Astrocytes; 100 μM MTZ", "value": "significantly effective at reducing DNA fragmentation"}, {"measurement": "Aβ-mediated increase in fragmented nucleosomes", "setting": "Normal Human Astrocytes; 300 μM MTZ, Aβ42 10 μM", "value": "completely prevented"}, {"measurement": "apoptosis in response to Aβ", "setting": "hCMEC/D3 cells (D3)", "value": "prevented"}, {"measurement": "ΔΨ after pre-aggregated Aβ", "setting": "[1]", "value": "rescue ΔΨ to values similar to those observed under control conditions"}, {"measurement": "ΔΨ after pre-aggregated Aβ", "setting": "SH-SY5Y neuronal cells", "value": "rescue ΔΨ to values similar to those observed under control conditions"}, {"measurement": "Aβ and GFAP staining, dentate gyrus (hippocampus)", "setting": "TgSwDI mice [2]", "value": "both Aβ and GFAP were reduced"}, {"measurement": "GFAP and Aβ staining and their colocalization, cortex", "setting": "TgSwDI mice [2]", "value": "significant reduction"}, {"measurement": "co-localization of Aβ staining with glial cells, dentate gyrus", "setting": "TgSwDI mice [2]", "value": "not co-localized within glial cells"}, {"measurement": "gliosis and amyloidosis, thalamic region", "setting": "TgSwDI mice [2]", "value": "decreased gliosis (green) and amyloidosis (red)"}, {"measurement": "amyloid deposits in the cortex and thalamic region (Thioflavin S)", "setting": "TgSwDI mice [2]", "value": "reduced deposition"}, {"measurement": "hippocampal deposition of Amyloid beta (Thioflavin S)", "setting": "TgSwDI mice [2]", "value": "decrease"}, {"measurement": "amyloid load in the brain (Thioflavin S)", "setting": "TgSwDI mice [2]", "value": "reduced"}, {"measurement": "Aβ deposition, hippocampus", "setting": "TgSwDI mice [2]; [4]", "value": "reduction in Aβ deposition"}, {"measurement": "increase in caspase 3 activation induced by Aβ, hippocampus", "setting": "TgSwDI mice [2]; [4]", "value": "inhibited"}, {"measurement": "signs of toxicity, weight loss or death", "setting": "TgSwDI mice [3]", "value": "without showing signs of toxicity, weight loss or increased death of the animals"}]}, {"molecule": "CC(=O)Nc1nnc(S(N)(=O)=O)s1", "note": "[ATZ, acetazolamide]", "values": [{"measurement": "apoptosis in response to Aβ", "setting": "SH-SY5Y cells", "value": "prevented"}, {"measurement": "apoptosis in response to Aβ", "setting": "hCMEC/D3 cells (D3)", "value": "prevented"}, {"measurement": "loss of ΔΨ", "setting": "[1]; [5]", "value": "prevent loss of ΔΨ"}, {"measurement": "ΔΨ after pre-aggregated Aβ", "setting": "[1]", "value": "rescue ΔΨ to values similar to those observed under control conditions"}, {"measurement": "loss of ΔΨ", "setting": "SH-SY5Y neuronal cells; [5]", "value": "prevent loss of ΔΨ"}, {"measurement": "ΔΨ after pre-aggregated Aβ", "setting": "SH-SY5Y neuronal cells", "value": "rescue ΔΨ to values similar to those observed under control conditions"}, {"measurement": "Aβ and GFAP staining, dentate gyrus (hippocampus)", "setting": "TgSwDI mice [2]", "value": "both Aβ and GFAP were reduced"}, {"measurement": "GFAP and Aβ staining and their colocalization, cortex", "setting": "TgSwDI mice [2]", "value": "significant reduction"}, {"measurement": "co-localization of Aβ staining with glial cells, dentate gyrus", "setting": "TgSwDI mice [2]", "value": "not co-localized within glial cells"}, {"measurement": "gliosis and amyloidosis, thalamic region", "setting": "TgSwDI mice [2]", "value": "decreased gliosis (green) and amyloidosis (red)"}, {"measurement": "amyloid deposits in the cortex and thalamic region (Thioflavin S)", "setting": "TgSwDI mice [2]", "value": "reduced deposition"}, {"measurement": "hippocampal deposition of Amyloid beta (Thioflavin S)", "setting": "TgSwDI mice [2]", "value": "decrease"}, {"measurement": "amyloid load in the brain (Thioflavin S)", "setting": "TgSwDI mice [2]", "value": "reduced"}, {"measurement": "increase in caspase 3 activation induced by Aβ, hippocampus", "setting": "TgSwDI mice [2]; [4]", "value": "inhibited"}, {"measurement": "signs of toxicity, weight loss or death", "setting": "TgSwDI mice [3]", "value": "without showing signs of toxicity, weight loss or increased death of the animals"}]}]}
